Counter-ions that a name gives are not always drawn.

The source of these data is patent US20220104492A1, “PYRIDAZINIUM COMPOUNDS FOR USE IN A METHOD OF CONTROLLING UNWANTED PLANT GROWTH” (SYNGENTA CROP PROTECTION AG, priority 2019, published 2022).

Holding throughout (assay): Post-emergence efficacy (glasshouse, spray application)
Common to all, as to assay type: in vivo

In experiment [1] the test system is Echinochloa crus-galli (ECHCG). The conditions noted are these: 312 h, Application rate 500 g/Ha, evaluated after 13 days, 100=total damage to plant, 0=no damage to plant, read-out: Control of weed species after post-emergence application, ECHCG. The method, then:
(§1) Seeds of a variety of test species were sown in standard soil in pots. After cultivation for 14 days (post-emergence) under controlled conditions in a glasshouse (at 24/16° C., day/night; 14 hours light; 65 humidity), the plants were sprayed with an aqueous spray solution derived from the dissolution of the technical active ingredient formula (I) in a small amount of acetone and a special solvent and emulsifier mixture referred to as IF50 (11.12% Emulsogen EL360 TM+44.44% N-methylpyrrolidone+44.44% Dowanol DPM glycol ether), to create a 50 g/l solution which was then diluted to required concentration using a solution of 0.25% or 1% Empicol ESC70 (Sodium lauryl ether sulphate)+1% ammonium sulphate in water as diluent.
(§2) The test plants were then grown in a glasshouse under controlled conditions (at 24/16° C., day/night; 14 hours light; 65% humidity) and watered twice daily. After 13 days the test was evaluated (100=total damage to plant; 0=no damage to plant).
(§3) Ipomoea hederacea (IPOHE), Euphorbia heterophylla (EPHHL), Chenopodium album (CHEAL), Amaranthus palmeri (AMAPA), Lolium perenne (LOLPE), Digitaria sanguinalis (DIGSA), Eleusine indica (ELEIN), Echinochloa crus-galli (ECHCG), Setaria faberi (SETFA)

In experiment [2] the test system is Chenopodium album (CHEAL). The conditions noted are these: 312 h, Application rate 500 g/Ha, evaluated after 13 days, 100=total damage to plant, 0=no damage to plant, read-out: Control of weed species after post-emergence application, CHEAL. The method, then: as §1, §2, §3
The subject of experiment [3] is Euphorbia heterophylla (EPHHL). The note with it: 312 h, Application rate 500 g/Ha, evaluated after 13 days, 100=total damage to plant, 0=no damage to plant, read-out: Control of weed species after post-emergence application, EPHHL. As for the experimental part:
as §1, §2, §3

Experiment [4] relates to Amaranthus palmeri (AMAPA). The conditions noted are these: 312 h, Application rate 500 g/Ha, evaluated after 13 days, 100=total damage to plant, 0=no damage to plant, read-out: Control of weed species after post-emergence application, AMAPA. The method, then: as §1, §2, §3
In the next experiment the test system is Setaria faberi (SETFA). The note with it: 312 h, Application rate 500 g/Ha, evaluated after 13 days, 100=total damage to plant, 0=no damage to plant, read-out: Control of weed species after post-emergence application, SETFA. As for the experimental part: as §1, §2, §3
The test system of experiment [5] is Ipomoea hederacea (IPOHE). The note with it: 312 h, Application rate 500 g/Ha, evaluated after 13 days, 100=total damage to plant, 0=no damage to plant, read-out: Control of weed species after post-emergence application, IPOHE. As for the experimental part:
as §1, §2, §3

A further experiment deals with Eleusine indica (ELEIN). The note with it: 312 h, Application rate 500 g/Ha, evaluated after 13 days, 100=total damage to plant, 0=no damage to plant, read-out: Control of weed species after post-emergence application, ELEIN. The method, then:
as §1, §2, §3

The test system of experiment [6] is Digitaria sanguinalis (DIGSA). The note with it: 312 h, Application rate 500 g/Ha, evaluated after 13 days, 100=total damage to plant, 0=no damage to plant, read-out: Control of weed species after post-emergence application, DIGSA. As for the experimental part: as §1, §2, §3
A further experiment deals with Lolium perenne (LOLPE). The conditions noted are these: 312 h, Application rate 500 g/Ha, evaluated after 13 days, 100=total damage to plant, 0=no damage to plant, read-out: Control of weed species after post-emergence application, LOLPE. As for the experimental part:
as §1, §2, §3

Take `O=C(O)CNC(=O)C[n+]1ccc(-c2ccncc2)cn1` [Compound A20]: the pest or weed control at 500 g/ha in [1] worked out at 60%; in experiment [2] it was 90%; in [3] it was 90%; in experiment [4], 100%; with Setaria faberi (SETFA), 70%; in experiment [5], 70%. In addition, the values for the pest or weed control at 500 g/ha (in the experiment on Eleusine indica (ELEIN); in experiment [6]; in the experiment on Lolium perenne (LOLPE)) were 60%, 70% and 30%, respectively.
As for `O=S(=O)([O-])OCCOCC[n+]1ccc(-c2ncccn2)cn1` [Compound A21, 2-[2-(4-pyrimidin-2-ylpyridazin-1-ium-1-yl)ethoxy]ethyl sulfate], the pest or weed control at 500 g/ha in [1] amounted to 80%; in experiment [2], 70%; in [3], 90%; in [4] it was 100%; in the experiment on Setaria faberi (SETFA), 70%; in experiment [5] it was 40%. In addition, the pest or weed control at 500 g/ha with Eleusine indica (ELEIN) amounted to 80%; in experiment [6], 70%; in the experiment on Lolium perenne (LOLPE), 40%.
Turning to `O=C(O)CNC(=O)CC[n+]1ccc(-c2ccncn2)cn1` [Compound A23], the pest or weed control at 500 g/ha in [1] amounted to 60%; in experiment [2], 70%; in experiment [3] it was 90%; in experiment [4], 100%; in the experiment on Setaria faberi (SETFA), 60%; in experiment [5], 100%. Moreover, the pest or weed control at 500 g/ha is 100% in the experiment on Eleusine indica (ELEIN), 100% in [6] and 40% in the experiment with Lolium perenne (LOLPE).
With `CN(CC(=O)O)C(=O)CC[n+]1ccc(-c2ncccn2)cn1` [Compound A24], the pest or weed control at 500 g/ha stood at 40% in [1]; 90% in experiment [2]; 90% in experiment [3]; 90% in experiment [4]; 70% in the experiment with Setaria faberi (SETFA); 40% in experiment [5]. In addition, the pest or weed control at 500 g/ha in the experiment on Eleusine indica (ELEIN) worked out at 50%; in experiment [6], 100%; in the experiment on Lolium perenne (LOLPE), 30%.
As to `CC(NC(=O)CC[n+]1ccc(-c2ncccn2)cn1)C(=O)O` (stereo not drawn) [Compound A25], the pest or weed control at 500 g/ha in experiment [1] is 90%; in [2], 100%; in experiment [3], 100%; in [4], 100%; in the experiment with Setaria faberi (SETFA), 90%; in experiment [5], 40%. The pest or weed control at 500 g/ha turned out to be 100% in the experiment with Eleusine indica (ELEIN), 100% in experiment [6] and 70% in the experiment with Lolium perenne (LOLPE).
For `O=C(O)CNC(=O)C[n+]1ccc(-c2ccccn2)cn1` [Compound A26], the pest or weed control at 500 g/ha in experiment [1] stood at 90%; in experiment [2] it was 100%; in experiment [3], 100%; in [4] it was 100%; in the experiment with Setaria faberi (SETFA), 80%; in experiment [5], 40%. Moreover, the pest or weed control at 500 g/ha amounted to 80% with Eleusine indica (ELEIN), 70% in experiment [6] and 40% in the experiment with Lolium perenne (LOLPE).
Take `O=C(O)CNC(=O)CC[n+]1ccc(-c2cccnn2)cn1` [Compound A27]: the pest or weed control at 500 g/ha was found to be 90% in experiment [1]; 100% in [2]; 90% in [3]; 100% in experiment [4]; 100% in the experiment on Setaria faberi (SETFA); 40% in [5]. For the same compound, the pest or weed control at 500 g/ha in the experiment on Eleusine indica (ELEIN) was found to be 60%; in experiment [6] it was 100%; with Lolium perenne (LOLPE), 70%.
